Source: PubChem BioAssay (NCI)
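GI50: concentration for 50% inhibition of growth. TGI: total growth inhibition.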

How the values were obtained:
Test in all cases: DTP human tumour cell line panel, 384-well format
[1] = system: SNB-19 CNS
[2] = system: OVCAR-3 ovarian
[3] = system: MCF7 breast
[4] = system: EKVX NSCLC
[5] = system: HCC-2998 colon
[6] = system: OVCAR-4 ovarian
[7] = system: LOX IMVI melanoma
[8] = system: NCI-H322M lung
[9] = system: OVCAR-5 ovarian
[10] = system: T-47D breast
[11] = system: SF-268 CNS
[12] = system: UACC-257 melanoma
[13] = system: K-562 leukemia
[14] = system: A498 renal
[15] = system: MDA-MB-435 melanoma
[16] = system: HOP-92 NSCLC
[17] = system: ACHN renal
[18] = system: HT29 colon
[19] = system: SK-MEL-28 melanoma
[20] = system: A549 NSCLC
[21] = system: MALME-3M melanoma
[22] = system: NCI-H522 lung
[23] = system: OVCAR-8 ovarian
[24] = system: UO-31 renal
[25] = system: SF-295 CNS
[26] = system: NCI-H226 lung
[27] = system: U251 glioblastoma
[28] = system: TK-10 renal
[29] = system: SK-MEL-2 melanoma
[30] = system: COLO 205 colon
[31] = system: HS 578T breast
[32] = system: SN12C renal
[33] = system: SK-OV-3 ovarian
[34] = system: MDA-MB-231 breast
[35] = system: SNB-75 CNS
[36] = system: IGROV1 ovarian
[37] = system: SW-620 colon
[38] = system: HCT-15 colon
[39] = system: KM12 colon
[40] = system: HCT-116 colon
[41] = system: CAKI-1 renal
[42] = system: PC-3 prostate
[43] = system: UACC-62 melanoma
[44] = system: SK-MEL-5 melanoma

With `Nc1ccn(C2OC(CO)C(O)C2(F)F)c(=O)n1` (configuration not stated) the TGI [1] was 517 nM, the TGI [2] was greater than 100000 nM and the TGI [3] was greater than 100000 nM. For the same molecule, the GI50 [4] was 8710 nM, the TGI [4] was greater than 100000 nM and the TGI [5] was greater than 100000 nM. It also gave a GI50 [6] greater than 100000 nM, a TGI [6] greater than 100000 nM and a TGI [7] of 33 nM. The GI50 [8] was 1090 nM, the TGI [8] was greater than 100000 nM and the GI50 [9] was 48.1 nM. For the same molecule, the TGI [9] was greater than 100000 nM, the GI50 [10] was 552 nM and the TGI [10] was greater than 100000 nM. The TGI [11] was 18.5 nM, the GI50 [12] was less than 18.3 nM and the TGI [13] was greater than 100000 nM. For the same molecule, the TGI [14] was greater than 100000 nM, the GI50 [15] was 301 nM and the TGI [15] was greater than 100000 nM. It also gave a GI50 [16] of 40.7 nM, a TGI [16] greater than 33100 nM and a TGI [17] of less than 10.8 nM. The GI50 [18] was less than 11.2 nM, the TGI [18] was 3040 nM and the TGI [19] was greater than 100000 nM. The TGI [20] was greater than 100000 nM, the TGI [21] was greater than 22100 nM and the TGI [22] was 5710 nM. The TGI [23] was less than 33.5 nM, the TGI [24] was less than 21.3 nM and the GI50 [25] was less than 14.6 nM. It also gave a TGI [25] of 25.4 nM, a GI50 [26] of less than 16.2 nM and a TGI [26] of 73.4 nM. The TGI [27] was 25.2 nM, the TGI [28] was greater than 100000 nM and the TGI [29] was 15300 nM. It also gave a GI50 [30] of 27.7 nM, a TGI [30] of 140 nM and a GI50 [31] of less than 33.3 nM. For the same molecule, the TGI [31] was greater than 40800 nM, the GI50 [32] was 18.5 nM and the TGI [32] was 64.9 nM. The GI50 [33] was 31.8 nM, the TGI [33] was greater than 100000 nM and the GI50 [34] was 95.7 nM. It also gave a GI50 [35] of less than 15.5 nM, a TGI [35] of less than 30.5 nM and a TGI [36] greater than 100000 nM. The GI50 [37] was less than 15.8 nM, the TGI [37] was greater than 100000 nM and the TGI [38] was greater than 100000 nM. For the same molecule, the GI50 [39] was 15.3 nM, the TGI [39] was greater than 100000 nM and the TGI [40] was greater than 36900 nM. For the same molecule, the TGI [41] was 173 nM, the GI50 [42] was greater than 100000 nM and the TGI [42] was greater than 100000 nM. For the same molecule, the TGI [43] was 19.4 nM and the TGI [44] was less than 16.8 nM.
